Test results taken from PubChem BioAssay (NCI).
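Five compound concentrations were applied to cells in 96-well plates for 48 hours; endpoints were derived by simple linear interpolation of the resulting dose-response curve. GI50: concentration for 50% inhibition of growth. At the TGI there is no net growth.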

How the values were obtained:
Assay in all cases: NCI tumour cell line growth inhibition, 48 h
786-0 renal = system: 786-0 renal
A498 renal = system: A498 renal
A549 NSCLC = system: A549 NSCLC
ACHN renal = system: ACHN renal
BT-549 breast = system: BT-549 breast
CAKI-1 renal = system: CAKI-1 renal
CCRF-CEM leukemia = system: CCRF-CEM leukemia
COLO 205 colon = system: COLO 205 colon
DU-145 prostate = system: DU-145 prostate
EKVX NSCLC = system: EKVX NSCLC
HCC-2998 colon = system: HCC-2998 colon
HCT-116 colon = system: HCT-116 colon
HCT-15 colon = system: HCT-15 colon
HL-60(TB) leukemia = system: HL-60(TB) leukemia
HOP-62 NSCLC = system: HOP-62 NSCLC
HOP-92 NSCLC = system: HOP-92 NSCLC
HS 578T breast = system: HS 578T breast
HT29 colon = system: HT29 colon
IGROV1 ovarian = system: IGROV1 ovarian
K-562 leukemia = system: K-562 leukemia
KM12 colon = system: KM12 colon
LOX IMVI melanoma = system: LOX IMVI melanoma
M14 melanoma = system: M14 melanoma
MALME-3M melanoma = system: MALME-3M melanoma
MCF7 breast = system: MCF7 breast
MDA-MB-231 breast = system: MDA-MB-231 breast
MDA-MB-435 = system: MDA-MB-435
MOLT-4 leukemia = system: MOLT-4 leukemia
NCI-H226 lung = system: NCI-H226 lung
NCI-H23 lung = system: NCI-H23 lung
NCI-H460 lung = system: NCI-H460 lung
NCI-H522 lung = system: NCI-H522 lung
NCI/ADR-RES ovarian = system: NCI/ADR-RES ovarian
OVCAR-3 ovarian = system: OVCAR-3 ovarian
OVCAR-5 ovarian = system: OVCAR-5 ovarian
PC-3 prostate = system: PC-3 prostate
RPMI-8226 leukemia = system: RPMI-8226 leukemia
RXF 393 renal = system: RXF 393 renal
SF-268 CNS = system: SF-268 CNS
SF-295 CNS = system: SF-295 CNS
SF-539 CNS = system: SF-539 CNS
SK-MEL-2 melanoma = system: SK-MEL-2 melanoma
SK-MEL-28 melanoma = system: SK-MEL-28 melanoma
SK-MEL-5 melanoma = system: SK-MEL-5 melanoma
SK-OV-3 ovarian = system: SK-OV-3 ovarian
SN12C renal = system: SN12C renal
SNB-19 CNS = system: SNB-19 CNS
SNB-75 CNS = system: SNB-75 CNS
SR leukemia = system: SR leukemia
SW-620 colon = system: SW-620 colon
T-47D breast = system: T-47D breast
TK-10 renal = system: TK-10 renal
U251 CNS = system: U251 CNS
UACC-257 melanoma = system: UACC-257 melanoma
UACC-62 melanoma = system: UACC-62 melanoma
UO-31 renal = system: UO-31 renal
OVCAR-4 ovarian = system: OVCAR-4 ovarian
OVCAR-8 ovarian = system: OVCAR-8 ovarian

O=C(c1ccccc1)c1c(C(F)(F)F)n([O-])c2ccc(F)cc2[n+]1=O
GI50 (786-0 renal): 1240 nM
TGI (786-0 renal): 2520 nM
GI50 (A498 renal): 2380 nM
TGI (A498 renal): 6040 nM
GI50 (A549 NSCLC): 749 nM
TGI (A549 NSCLC): 2970 nM
GI50 (ACHN renal): 1090 nM
TGI (ACHN renal): 2340 nM
GI50 (BT-549 breast): 252 nM
TGI (BT-549 breast): 788 nM
GI50 (CAKI-1 renal): 1500 nM
TGI (CAKI-1 renal): 2850 nM
GI50 (CCRF-CEM leukemia): 349 nM
TGI (CCRF-CEM leukemia): > 100000 nM
GI50 (COLO 205 colon): 383 nM
TGI (COLO 205 colon): 926 nM
GI50 (DU-145 prostate): 1300 nM
TGI (DU-145 prostate): 2570 nM
GI50 (EKVX NSCLC): 992 nM
TGI (EKVX NSCLC): 2440 nM
GI50 (HCC-2998 colon): 773 nM
TGI (HCC-2998 colon): 1900 nM
GI50 (HCT-116 colon): 307 nM
TGI (HCT-116 colon): 1020 nM
GI50 (HCT-15 colon): 260 nM
TGI (HCT-15 colon): 758 nM
GI50 (HL-60(TB) leukemia): 188 nM
TGI (HL-60(TB) leukemia): 869 nM
GI50 (HOP-62 NSCLC): 1340 nM
TGI (HOP-62 NSCLC): 2710 nM
GI50 (HOP-92 NSCLC): 211 nM
TGI (HOP-92 NSCLC): 394 nM
GI50 (HS 578T breast): 1440 nM
TGI (HS 578T breast): 5080 nM
GI50 (HT29 colon): 502 nM
TGI (HT29 colon): 1790 nM
GI50 (IGROV1 ovarian): 517 nM
TGI (IGROV1 ovarian): 1980 nM
GI50 (K-562 leukemia): 348 nM
TGI (K-562 leukemia): 1770 nM
GI50 (KM12 colon): 872 nM
TGI (KM12 colon): 2470 nM
GI50 (LOX IMVI melanoma): 167 nM
TGI (LOX IMVI melanoma): 317 nM
GI50 (M14 melanoma): 1280 nM
TGI (M14 melanoma): 2670 nM
GI50 (MALME-3M melanoma): 1370 nM
TGI (MALME-3M melanoma): 3040 nM
GI50 (MCF7 breast): 373 nM
TGI (MCF7 breast): 1670 nM
GI50 (MDA-MB-231 breast): 662 nM
TGI (MDA-MB-231 breast): 1630 nM
GI50 (MDA-MB-435): 1300 nM
TGI (MDA-MB-435): 2660 nM
GI50 (MOLT-4 leukemia): 362 nM
TGI (MOLT-4 leukemia): 1480 nM
GI50 (NCI-H226 lung): 1550 nM
TGI (NCI-H226 lung): 3020 nM
GI50 (NCI-H23 lung): 980 nM
TGI (NCI-H23 lung): 2590 nM
GI50 (NCI-H460 lung): 663 nM
TGI (NCI-H460 lung): 2290 nM
GI50 (NCI-H522 lung): 911 nM
TGI (NCI-H522 lung): 2590 nM
GI50 (NCI/ADR-RES ovarian): 1780 nM
TGI (NCI/ADR-RES ovarian): 4810 nM
GI50 (OVCAR-3 ovarian): 501 nM
TGI (OVCAR-3 ovarian): 1570 nM
GI50 (OVCAR-5 ovarian): 1750 nM
TGI (OVCAR-5 ovarian): 4130 nM
GI50 (PC-3 prostate): 252 nM
TGI (PC-3 prostate): 828 nM
GI50 (RPMI-8226 leukemia): 551 nM
TGI (RPMI-8226 leukemia): 1930 nM
GI50 (RXF 393 renal): 434 nM
TGI (RXF 393 renal): 1450 nM
GI50 (SF-268 CNS): 945 nM
TGI (SF-268 CNS): 2400 nM
GI50 (SF-295 CNS): 1760 nM
TGI (SF-295 CNS): 3480 nM
GI50 (SF-539 CNS): 1440 nM
TGI (SF-539 CNS): 2880 nM
GI50 (SK-MEL-2 melanoma): 1470 nM
TGI (SK-MEL-2 melanoma): 3350 nM
GI50 (SK-MEL-28 melanoma): 1100 nM
TGI (SK-MEL-28 melanoma): 2320 nM
GI50 (SK-MEL-5 melanoma): 778 nM
TGI (SK-MEL-5 melanoma): 2180 nM
GI50 (SK-OV-3 ovarian): 1890 nM
TGI (SK-OV-3 ovarian): 3390 nM
GI50 (SN12C renal): 1020 nM
TGI (SN12C renal): 2570 nM
GI50 (SNB-19 CNS): 1870 nM
TGI (SNB-19 CNS): 4010 nM
GI50 (SNB-75 CNS): 1360 nM
TGI (SNB-75 CNS): 2650 nM
GI50 (SR leukemia): 95.7 nM
GI50 (SW-620 colon): 147 nM
TGI (SW-620 colon): 306 nM
GI50 (T-47D breast): 655 nM
TGI (T-47D breast): 2510 nM
GI50 (TK-10 renal): 1630 nM
TGI (TK-10 renal): 3180 nM
GI50 (U251 CNS): 1070 nM
TGI (U251 CNS): 2260 nM
GI50 (UACC-257 melanoma): 1540 nM
TGI (UACC-257 melanoma): 3230 nM
GI50 (UACC-62 melanoma): 882 nM
TGI (UACC-62 melanoma): 2180 nM
GI50 (UO-31 renal): 1380 nM
TGI (UO-31 renal): 2740 nM

COc1ccc(-n2c(N)c(C#N)c(C#N)c2-c2cccc([N+](=O)[O-])c2)cc1
TGI (786-0 renal): > 100000 nM
TGI (A498 renal): > 100000 nM
TGI (A549 NSCLC): 68700 nM
TGI (ACHN renal): > 100000 nM
TGI (BT-549 breast): > 100000 nM
TGI (CAKI-1 renal): > 100000 nM
TGI (CCRF-CEM leukemia): > 100000 nM
TGI (COLO 205 colon): > 100000 nM
TGI (DU-145 prostate): > 100000 nM
TGI (EKVX NSCLC): > 100000 nM
TGI (HCC-2998 colon): > 100000 nM
TGI (HCT-15 colon): > 100000 nM
TGI (HL-60(TB) leukemia): > 100000 nM
TGI (HOP-62 NSCLC): > 100000 nM
TGI (HOP-92 NSCLC): > 100000 nM
TGI (HS 578T breast): > 100000 nM
TGI (HT29 colon): > 100000 nM
TGI (IGROV1 ovarian): > 100000 nM
TGI (K-562 leukemia): > 100000 nM
TGI (KM12 colon): > 100000 nM
TGI (LOX IMVI melanoma): > 100000 nM
TGI (M14 melanoma): > 100000 nM
TGI (MALME-3M melanoma): > 100000 nM
TGI (MCF7 breast): > 100000 nM
TGI (MDA-MB-231 breast): > 100000 nM
TGI (MDA-MB-435): > 100000 nM
TGI (MOLT-4 leukemia): 44800 nM
TGI (NCI-H226 lung): > 100000 nM
TGI (NCI-H23 lung): > 100000 nM
TGI (NCI-H522 lung): > 100000 nM
TGI (NCI/ADR-RES ovarian): > 100000 nM
TGI (OVCAR-3 ovarian): > 100000 nM
TGI (OVCAR-4 ovarian): > 100000 nM
TGI (OVCAR-5 ovarian): > 100000 nM
TGI (OVCAR-8 ovarian): > 100000 nM
TGI (PC-3 prostate): > 100000 nM
TGI (RPMI-8226 leukemia): > 100000 nM
TGI (RXF 393 renal): 65100 nM
TGI (SF-268 CNS): > 100000 nM
TGI (SF-295 CNS): > 100000 nM
TGI (SF-539 CNS): > 100000 nM
TGI (SK-MEL-2 melanoma): 8680 nM
TGI (SK-MEL-5 melanoma): > 100000 nM
TGI (SK-OV-3 ovarian): > 100000 nM
TGI (SN12C renal): > 100000 nM
TGI (SNB-19 CNS): > 100000 nM
TGI (SNB-75 CNS): > 100000 nM
TGI (SR leukemia): > 100000 nM
TGI (SW-620 colon): > 100000 nM
TGI (T-47D breast): > 100000 nM
TGI (TK-10 renal): > 100000 nM
TGI (U251 CNS): > 100000 nM
TGI (UACC-257 melanoma): > 100000 nM
TGI (UACC-62 melanoma): > 100000 nM
TGI (UO-31 renal): > 100000 nM
